Here are results for eleven molecules from PubChem BioAssay (NCI).

Test systems include 786-0 renal; A549 NSCLC; DU-145 prostate; EKVX NSCLC; HT29 colon; KM12 colon; MCF7 breast; RPMI-8226 leukemia; SF-268 CNS; SK-MEL-5 melanoma.
Holding throughout (assay): NCI-60 cell line screen, 48 h

Where “and” joins values, the source holds several entries; their conditions need not be identical. Equal values may be shown once.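 Growth conditions: 96-well plates. Treatment: test compound, 48 hours, 5 concentrations. Analysis: linear interpolation between bracketing concentrations; unreached endpoints set to highest concentration. GI50 = concentration required for 50% inhibition of growth. TGI denotes the concentration required for complete inhibition of growth.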

Regarding `CCCCCCCCCCCCCCCCOP(=O)(O)OP(=O)(O)OCC1OC(n2ccc(N)nc2=O)C(O)C1O` (stereo not drawn), the GI50 is > 100 µM and 26.2 µM in the experiment on 786-0 renal; > 100 µM and 19.3 µM in the experiment on MCF7 breast. Besides, the TGI in the experiment on 786-0 renal, in the experiment with A549 NSCLC, in the experiment with DU-145 prostate, in the experiment on EKVX NSCLC, in the experiment with HT29 colon and in the experiment with KM12 colon was over 100 µM in each case. Also, the TGI with MCF7 breast, in the experiment on RPMI-8226 leukemia, with SF-268 CNS and in the experiment with SK-MEL-5 melanoma was over 100 µM in each case.

Regarding `COC(=O)/C=C/c1cn(C(C)=O)c2ccc(Br)cc12`, the GI50 with 786-0 renal was 17.4 µM; in the experiment on A549 NSCLC, 33.8 µM; with DU-145 prostate, 32.5 µM; with EKVX NSCLC, 28.2 µM; in the experiment on HT29 colon, 27.5 µM; in the experiment with KM12 colon, 25.3 µM. For the same molecule, the GI50 in the experiment with MCF7 breast was 15.7 µM; in the experiment with RPMI-8226 leukemia, 19 µM; with SF-268 CNS, 26.4 µM; in the experiment on SK-MEL-5 melanoma, 33.5 µM. Moreover, the TGI was 39.2 µM in the experiment with 786-0 renal; over 100 µM in the experiment on A549 NSCLC; over 100 µM in the experiment with DU-145 prostate; over 100 µM in the experiment with EKVX NSCLC; over 100 µM in the experiment with HT29 colon; 79.5 µM in the experiment on KM12 colon. Also, the TGI with MCF7 breast, with RPMI-8226 leukemia, in the experiment with SF-268 CNS and with SK-MEL-5 melanoma was over 100 µM throughout.

As for `COc1ccc(CNc2nc3cc(N)cc(N)c3nc2-c2ccccc2)cc1`, the GI50 is 15.1 µM with 786-0 renal; 21.5 µM in the experiment with A549 NSCLC; 21.7 µM in the experiment on DU-145 prostate; 14.9 µM in the experiment on EKVX NSCLC; 24.5 µM in the experiment with HT29 colon; 13.3 µM in the experiment with KM12 colon. For the same molecule, the GI50 was 13.2 µM in the experiment on MCF7 breast, 9.79 µM in the experiment with SF-268 CNS and 17.6 µM in the experiment on SK-MEL-5 melanoma. Also, the TGI worked out at 41.4 µM in the experiment with 786-0 renal; 59.8 µM in the experiment on A549 NSCLC; 58 µM with DU-145 prostate; 28.2 µM in the experiment on EKVX NSCLC; 60.2 µM with HT29 colon; 26.1 µM in the experiment on KM12 colon. Further, the TGI in the experiment on MCF7 breast worked out at 26.5 µM; in the experiment on RPMI-8226 leukemia, 15.9 µM; in the experiment on SF-268 CNS it was 22 µM; with SK-MEL-5 melanoma, 31.4 µM.

Regarding `CC(=O)Oc1cc2c(OC(C)=O)c(-c3c(C)cc4c(C(C)C)c(OC(C)=O)c(OC(C)=O)cc4c3OC(C)=O)c(C)cc2c(C(C)C)c1OC(C)=O`, the GI50 in the experiment on 786-0 renal was 7.26 µM and 6.91 µM and 11.4 µM; with A549 NSCLC, 14.7 µM and 5.12 µM and 9.61 µM; with DU-145 prostate, 5.3 µM and 5.17 µM and 9.94 µM; in the experiment on EKVX NSCLC, 4.82 µM and 4.81 µM and 9.21 µM; in the experiment on KM12 colon, 4.83 µM and 5.02 µM and 9.12 µM; in the experiment with MCF7 breast, 6.42 µM and 7.03 µM and 10.3 µM. The GI50 is 5.36 µM and 5.79 µM and 7.94 µM in the experiment on RPMI-8226 leukemia; 6.91 µM and 7.21 µM and 11.7 µM in the experiment on SF-268 CNS; 17.4 µM and 4.66 µM and 7.79 µM in the experiment on SK-MEL-5 melanoma. Further, the TGI in the experiment on 786-0 renal is 20.8 µM and 16.5 µM and 35.4 µM; with A549 NSCLC, 30.7 µM and 9.92 µM and 22.2 µM; in the experiment on DU-145 prostate, 11.1 µM and 10.2 µM and 23.6 µM; in the experiment with EKVX NSCLC, 10.6 µM and 9.92 µM and 26.7 µM; in the experiment with HT29 colon, 40.2 µM and > 74.8 µM and 62.7 µM; with KM12 colon it was 10.6 µM and 10.2 µM and 21.3 µM. Further, the TGI in the experiment on MCF7 breast was 19.5 µM and 21.5 µM and 27.1 µM; in the experiment on RPMI-8226 leukemia it was 14 µM and 15.4 µM and 20.4 µM; in the experiment with SF-268 CNS, 39.7 µM and 29 µM and 37.4 µM; in the experiment on SK-MEL-5 melanoma it was 33.2 µM and 9 µM and 17 µM.

Turning to `COc1cc(O)c2c(c1)C(=O)c1cc3c(c(O)c1C2=O)C(OC1OC(C)C(O)C(O)C1OC)C(OC)C(C)(O)C3=O` (stereo not drawn), the GI50 with 786-0 renal is 2.42 µM; with DU-145 prostate, 3.11 µM; with EKVX NSCLC, 2.74 µM; in the experiment with HT29 colon, 2.44 µM; with KM12 colon it was 3.11 µM and 2.33 µM; with RPMI-8226 leukemia, 2.46 µM and 9.76 µM. Moreover, the GI50 is 2.56 µM in the experiment with SF-268 CNS and 1.27 µM with SK-MEL-5 melanoma. Further, the TGI in the experiment on 786-0 renal is 40.5 µM; with A549 NSCLC, 12 µM; in the experiment with DU-145 prostate, 11.5 µM; in the experiment on EKVX NSCLC it was 7.21 µM and 5.39 µM; in the experiment with HT29 colon, 11.8 µM and 8.61 µM; with KM12 colon, 17.9 µM and 7.92 µM. For the same molecule, the TGI was 6.76 µM and 6.4 µM in the experiment with MCF7 breast; 59.6 µM and 30.5 µM in the experiment with RPMI-8226 leukemia; 15.2 µM and 40.5 µM in the experiment on SF-268 CNS; 2.57 µM and 2.26 µM with SK-MEL-5 melanoma.

With `CC/C(=C(/c1ccc(O)cc1)c1ccc(OCCN2CCCCC2)cc1)c1ccc(OC)cc1`, the GI50 in the experiment with 786-0 renal is 1.28 µM; in the experiment with A549 NSCLC, 4.11 µM; in the experiment on DU-145 prostate it was 4.52 µM; with EKVX NSCLC it was 4.05 µM; in the experiment with HT29 colon, 1.21 µM; in the experiment on KM12 colon it was 2.63 µM. Besides, the GI50 with MCF7 breast is 0.0707 µM; in the experiment on RPMI-8226 leukemia, 1.24 µM; in the experiment with SF-268 CNS, 2.14 µM; in the experiment with SK-MEL-5 melanoma, 1.79 µM. The TGI in the experiment with 786-0 renal was 2.74 µM; with A549 NSCLC it was 15.4 µM; with DU-145 prostate, 18.1 µM; in the experiment with EKVX NSCLC, 18.4 µM; in the experiment on HT29 colon it was 3.67 µM; in the experiment on KM12 colon, 12.2 µM. Also, the TGI with MCF7 breast amounted to 2.08 µM; in the experiment on RPMI-8226 leukemia it was 3.61 µM; with SF-268 CNS, 6.38 µM; with SK-MEL-5 melanoma, 3.21 µM.

Consider `CCOC(=O)C(C)(C)C(O)C(C)C` (stereo not drawn), for which the TGI in the experiment with 786-0 renal, with A549 NSCLC, with DU-145 prostate, in the experiment with EKVX NSCLC, in the experiment with HT29 colon and in the experiment with KM12 colon was over 100 µM in each case. The TGI in the experiment on MCF7 breast, with RPMI-8226 leukemia, in the experiment on SF-268 CNS and in the experiment on SK-MEL-5 melanoma was over 100 µM in each case.

Take `O=S(=O)(Nc1cc(Cl)ccc1Cl)c1ccc(-c2cnc(C3CC3)o2)cc1`: the GI50 is 0.539 µM in the experiment with 786-0 renal; 1.66 µM with A549 NSCLC; 3.72 µM in the experiment with DU-145 prostate; 5.24 µM in the experiment with EKVX NSCLC; 0.654 µM in the experiment on HT29 colon; 0.704 µM in the experiment with KM12 colon. Moreover, the GI50 with MCF7 breast is 0.557 µM; in the experiment on RPMI-8226 leukemia it was 2.44 µM; in the experiment with SF-268 CNS, 10.7 µM; with SK-MEL-5 melanoma, 3.36 µM. Besides, the TGI is 20.9 µM in the experiment on 786-0 renal; over 100 µM in the experiment with A549 NSCLC; over 100 µM in the experiment on DU-145 prostate; 85.4 µM with EKVX NSCLC; 13.5 µM in the experiment with HT29 colon; 24.4 µM in the experiment with KM12 colon. In addition, the TGI is over 100 µM with MCF7 breast, over 100 µM in the experiment with RPMI-8226 leukemia, 71.3 µM with SF-268 CNS and 21.8 µM in the experiment on SK-MEL-5 melanoma.

As for `CCCCN(CCCC)CCCn1c(=O)c2c3ccccc3n(C)c2n2nnc(-c3ccccc3)c12`, the GI50 with 786-0 renal is 39 µM; in the experiment with A549 NSCLC, 43.9 µM; with DU-145 prostate it was 47.6 µM; in the experiment with EKVX NSCLC it was 56.3 µM; in the experiment on HT29 colon, 7.72 µM; in the experiment with KM12 colon, 34.3 µM. Moreover, the GI50 in the experiment on MCF7 breast is 37.2 µM; in the experiment on RPMI-8226 leukemia, 6 µM; in the experiment on SF-268 CNS, over 100 µM; in the experiment with SK-MEL-5 melanoma it was 31.9 µM. The TGI in the experiment with 786-0 renal is over 100 µM; in the experiment with A549 NSCLC, over 100 µM; in the experiment with DU-145 prostate, over 100 µM; in the experiment on EKVX NSCLC it was over 100 µM; with HT29 colon, 36.3 µM; in the experiment on KM12 colon, over 100 µM. In addition, the TGI in the experiment on MCF7 breast was over 100 µM; in the experiment on RPMI-8226 leukemia it was 49.4 µM; with SF-268 CNS, over 100 µM; with SK-MEL-5 melanoma, over 100 µM.

Take `C/C(=C(\c1ccc(OCCN2CCCCCC2)cc1)c1ccc(OC(=O)Cc2ccccc2)cc1)c1ccc(Cl)cc1`: the GI50 was 1.78 µM in the experiment on 786-0 renal; 2.7 µM with A549 NSCLC; 3.15 µM with DU-145 prostate; 2.6 µM with EKVX NSCLC; 1.05 µM with HT29 colon; 2.72 µM in the experiment on KM12 colon. Also, the GI50 is 0.382 µM in the experiment on MCF7 breast, 1.82 µM in the experiment with RPMI-8226 leukemia, 2.84 µM in the experiment on SF-268 CNS and 2.36 µM in the experiment on SK-MEL-5 melanoma. For the same molecule, the TGI in the experiment with 786-0 renal was found to be 3.85 µM; in the experiment with A549 NSCLC it was 5.41 µM; with DU-145 prostate, 6.32 µM; with EKVX NSCLC, 7.8 µM; in the experiment with HT29 colon, 4.01 µM; in the experiment with KM12 colon it was 5.77 µM. Also, the TGI with MCF7 breast is 3.83 µM; in the experiment on RPMI-8226 leukemia, 5.47 µM; in the experiment with SF-268 CNS, 6.11 µM; in the experiment with SK-MEL-5 melanoma, 4.58 µM.

Consider `O=C(NCc1ccncc1)C12CC3CC(C1)CC(c1ccc(Cl)cc1)(C3)C2`, for which the GI50 in the experiment with 786-0 renal was 12.6 µM; in the experiment on A549 NSCLC, 15 µM; with DU-145 prostate, 14.8 µM; with EKVX NSCLC, 11.6 µM; in the experiment on HT29 colon it was 11.9 µM; in the experiment with KM12 colon, 13.6 µM. For the same molecule, the GI50 in the experiment on MCF7 breast is 10.2 µM; with RPMI-8226 leukemia, 7.59 µM; in the experiment with SF-268 CNS, 13.7 µM; in the experiment on SK-MEL-5 melanoma, 5.7 µM. The TGI came to 25.8 µM with 786-0 renal; 30.8 µM in the experiment on A549 NSCLC; 28.6 µM with DU-145 prostate; 26.3 µM in the experiment on EKVX NSCLC; 25.4 µM in the experiment with HT29 colon; 27.8 µM in the experiment with KM12 colon. In addition, the TGI with MCF7 breast came out at 27.8 µM; with RPMI-8226 leukemia it was 71.7 µM; with SF-268 CNS, 29.5 µM; with SK-MEL-5 melanoma, 18.3 µM.
